Legend:
[1] = target: T1, MC1-R (B-16 mouse melanoma cells) (Mus musculus, UniProt Q01727); assay: Competitive inhibition binding assay, 125I-NDP-α-MSH, MC1-R; conditions: for Inhibition at 1 μM MC1-R: 1 μM compound, inhibition of 125I-NDP-α-MSH binding, mean of triplicates, results less than 0% reported as 0%
T1 construct: B-16 mouse melanoma cells (containing MC1-R); endogenous in cells; host or cells: B-16 mouse melanoma cells
Description: (§1) The competitive inhibition binding assay was conducted using membranes prepared from hMC3-R, hMC4-R, hMC5-R, and B-16 mouse melanoma cells (containing MC1-R) using 0.4 nM ^125I-NDP-α-MSH (New England Nuclear, Boston, Mass., USA) in 50 mM HEPES buffer containing 1 mM MgCl2, 2 mM CaCl2, and 5 mM KCl, at pH 7.2. The assay tube also contained a chosen concentration of the test peptidomimetic of this invention, generally 1 μM, for determining its efficacy in inhibiting the binding of ^125I-NDP-α-MSH to its receptor.
(§2) Incubation was for 90 minutes at room temperature, after which the assay mixture was filtered and the membranes washed three times with ice cold buffer. The filter was dried and counted in a gamma counter for remaining radioactivity bound to the membranes. 100% specific binding was defined as the difference in radioactivity (cpm) bound to cell membranes in the absence and presence of 1 μM α-MSH. […] Each assay was conducted in triplicate and the actual mean values are described.

MC5-R = MC5-R (Homo sapiens, UniProt P33032); assay: Competitive inhibition binding assay, 125I-NDP-α-MSH, MC5-R; design: expressed in transfected cells; conditions: for Inhibition at 1 μM MC5-R: 1 μM compound, inhibition of 125I-NDP-α-MSH binding, mean of triplicates, results less than 0% reported as 0%
Chain of MC5-R (P33032 whole entry): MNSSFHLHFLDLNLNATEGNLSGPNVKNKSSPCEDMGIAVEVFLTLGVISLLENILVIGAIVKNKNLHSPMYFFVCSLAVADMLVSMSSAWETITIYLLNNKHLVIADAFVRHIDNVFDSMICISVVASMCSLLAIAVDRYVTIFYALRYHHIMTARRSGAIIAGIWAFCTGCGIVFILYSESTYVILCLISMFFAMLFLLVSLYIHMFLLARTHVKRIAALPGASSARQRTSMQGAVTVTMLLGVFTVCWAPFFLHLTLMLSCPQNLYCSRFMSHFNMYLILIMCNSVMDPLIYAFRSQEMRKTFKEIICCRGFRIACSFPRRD
Description: as §1, §2

MC4-R = MC4-R (Homo sapiens, UniProt P32245); assay: Competitive inhibition binding assay, 125I-NDP-α-MSH, MC4-R; design: expressed in transfected cells; conditions: for Inhibition at 1 μM MC4-R: 1 μM compound, inhibition of 125I-NDP-α-MSH binding, mean of triplicates, results less than 0% reported as 0%
Chain of MC4-R (P32245 whole entry): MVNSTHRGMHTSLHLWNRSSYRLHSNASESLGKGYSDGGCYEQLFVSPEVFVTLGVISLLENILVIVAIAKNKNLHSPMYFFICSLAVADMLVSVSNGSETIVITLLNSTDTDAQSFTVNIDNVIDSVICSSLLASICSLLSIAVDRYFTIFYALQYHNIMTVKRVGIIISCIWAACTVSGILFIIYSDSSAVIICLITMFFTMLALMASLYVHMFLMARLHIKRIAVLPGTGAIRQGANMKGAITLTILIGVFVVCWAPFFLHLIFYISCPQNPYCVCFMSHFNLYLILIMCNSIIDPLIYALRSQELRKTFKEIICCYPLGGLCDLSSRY
Description: as §1, §2

MC3-R = MC3-R (Homo sapiens, UniProt P41968); assay: Competitive inhibition binding assay, 125I-NDP-α-MSH, MC3-R; design: expressed in transfected cells; conditions: for Inhibition at 1 μM MC3-R: 1 μM compound, inhibition of 125I-NDP-α-MSH binding, mean of triplicates, results less than 0% reported as 0%
Chain of MC3-R (P41968 whole entry): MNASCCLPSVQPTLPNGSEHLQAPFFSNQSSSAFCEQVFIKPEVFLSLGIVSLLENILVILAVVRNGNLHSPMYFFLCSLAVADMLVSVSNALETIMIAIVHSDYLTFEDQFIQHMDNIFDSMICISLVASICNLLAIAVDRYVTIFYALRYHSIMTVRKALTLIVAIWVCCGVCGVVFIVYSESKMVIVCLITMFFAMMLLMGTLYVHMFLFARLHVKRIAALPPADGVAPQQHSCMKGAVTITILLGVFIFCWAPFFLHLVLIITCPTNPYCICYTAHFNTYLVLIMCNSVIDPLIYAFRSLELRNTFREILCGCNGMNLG
Description: as §1, §2

T1 sequence (Q01727 whole entry): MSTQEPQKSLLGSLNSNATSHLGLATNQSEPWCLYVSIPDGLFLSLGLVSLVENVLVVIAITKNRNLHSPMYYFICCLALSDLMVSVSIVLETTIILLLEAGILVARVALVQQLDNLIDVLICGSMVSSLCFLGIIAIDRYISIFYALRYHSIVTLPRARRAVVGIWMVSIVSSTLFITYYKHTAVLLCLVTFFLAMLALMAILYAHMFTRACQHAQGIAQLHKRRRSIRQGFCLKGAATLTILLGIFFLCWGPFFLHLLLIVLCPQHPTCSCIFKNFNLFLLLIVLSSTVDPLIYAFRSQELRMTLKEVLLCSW

SMILES	Inhibition at 1 μM MC1-R [1] [%]	Inhibition at 1 μM MC5-R (MC5-R) [%]	Inhibition at 1 μM MC4-R (MC4-R) [%]	Inhibition at 1 μM MC3-R (MC3-R) [%]	inhibition at 1 µM [1] [%]	inhibition at 1 µM (MC5-R) [%]	inhibition at 1 µM (MC4-R) [%]	inhibition at 1 µM (MC3-R) [%]
CC(C)NC(=N)NCCCC1C(=O)N(CCc2ccc3ccccc3c2)CCN1C(=O)C(N)Cc1ccc(Cl)cc1Cl (centres unmarked) [Example 75]	37	28	85	40	–	–	–	–
N[C@H](Cc1ccc(Cl)cc1Cl)C(=O)N1CCN(CCc2ccc3ccccc3c2)C(=O)[C@@H]1CCCCNC(=O)c1ccc(O)cc1 [Example 61]	3	26	12	6	–	–	–	–
[2H]N[C@@H](Cc1ccccc1)C(=O)N1C[C@H](OCc2ccccc2)C[C@H]1C(=O)NCCCN [Example 137]	–	–	–	–	23	0	0	0
NCCCNC(=O)[C@@H]1C[C@@H](OCc2ccccc2)CN1C(=O)[C@@H](Cc1ccccc1)NC(=O)[C@@H](N)Cc1cccc2ccccc12 [Example 165]	0	0	16	2	–	–	–	–
NCCCNC(=O)[C@@H]1C[C@@H](OCc2ccccc2)CN1C(=O)[C@@H](Cc1ccccc1)NC(=O)c1ccc(CN)cc1 [Example 169]	12	0	6	0	–	–	–	–
NCCCNC(=O)C1CC(OCc2ccccc2)CN1C(=O)C(Cc1ccccc1)NC(=O)C1CCC(=O)N1C(=O)OCc1ccccc1 (centres unmarked) [Example 177]	2	0	7	0	–	–	–	–
CCCCCCC(=O)N[C@@H](COCc1ccccc1)C(=O)N[C@H](Cc1ccc(Cl)cc1)C(=O)N1CCN(CCc2c[nH]c3ccccc23)C(=O)[C@@H]1CCCCN [Example 78]	96	99	99	72	–	–	–	–
NCCCC[C@H]1C(=O)N2C(CC[C@@H]2COc2ccc3ccccc3c2)N1C(=O)[C@@H](Cc1ccccc1Cl)NC(=O)[C@@H]1NCCc2ccccc21 (some centres unmarked) [Example 88]	48	20	37	0	–	–	–	–
N=C(N)NCCC[C@H]1C(=O)N(CCc2ccc3ccccc3c2)CCN1C(=O)[C@H](N)Cc1ccc(Cl)cc1 [Example 123]	34	29	87	38	–	–	–	–
CNC(=O)NCCC[C@H]1C(=O)N(CCc2ccc3ccccc3c2)CCN1C(=O)[C@@H](Cc1ccc(Cl)cc1Cl)NC(=O)[C@@H](N)COCc1ccccc1 [Example 45]	5	31	72	11	–	–	–	–
NCCC[C@H]1CN(CCc2ccc3ccccc3c2)CCN1C(=O)[C@H](N)Cc1ccc(Cl)cc1Cl [Example 130]	0	39	81	33	–	–	–	–
N=C(N)NCCC[C@H]1C(=O)N(CCc2c[nH]c3ccccc23)CCN1C(=O)[C@@H](Cc1ccc(Cl)cc1)NC(=O)[C@@H](N)COCc1ccccc1 [Example 16]	86	81	96	55	–	–	–	–
NCCCC[C@H]1C(=O)N2C(CC[C@@H]2COc2ccc3c(c2)CCCC3)N1C(=O)[C@@H](Cc1ccc(Cl)cc1)NC(=O)[C@@H]1Cc2ccccc2CN1 (some centres unmarked) [Example 108]	96	66	94	19	–	–	–	–
Cc1ccc(CCN2CCN(C(=O)[C@H](N)Cc3ccc(Cl)cc3Cl)[C@@H](CCCNC(=N)N)C2=O)cc1 [Example 126]	11	34	78	42	–	–	–	–
NC(=O)CC[C@H]1C(=O)N(CCc2ccc3ccccc3c2)CCN1C(=O)[C@H](N)Cc1ccc(Cl)cc1Cl [Example 50]	0	0	0	0	–	–	–	–
N[C@H](Cc1ccc(Cl)cc1Cl)C(=O)N1CCN(CCc2ccc3ccccc3c2)C(=O)[C@@H]1CCNC1=NCCN1 [Example 55]	24	27	68	14	–	–	–	–
CS(=O)(=O)NCCC[C@H]1C(=O)N(CCc2ccc3ccccc3c2)CCN1C(=O)[C@@H](Cc1ccc(Cl)cc1Cl)NC(=O)[C@@H](N)COCc1ccccc1 [Example 47]	0	14	40	9	–	–	–	–
NCCCC[C@H]1C(=O)N2C(CC[C@@H]2COc2ccc3ccccc3c2)N1C(=O)[C@@H](Cc1ccccc1Cl)NC(=O)[C@@H](N)COCc1ccccc1 (some centres unmarked) [Example 82]	28	38	60	0	–	–	–	–
N[C@H](Cc1ccc(Cl)cc1Cl)C(=O)N1CCN(CCc2ccc3ccccc3c2)C(=O)[C@@H]1CCCCNC(=O)c1cccnc1 [Example 60]	4	13	23	6	–	–	–	–
NCCCCC1C(=O)N2C(COc3ccccc3)CCC2N1C(=O)C(N)Cc1ccc(Cl)cc1 (centres unmarked) [Example 103]	9	0	0	0	–	–	–	–
NCCCNC(=O)[C@@H]1C[C@@H](OCc2ccccc2)CN1C(=O)[C@@H](Cc1ccccc1)NC(=O)[C@@H](N)C1Cc2ccccc2C1 [Example 174]	10	2	15	21	–	–	–	–
NCCCC[C@H]1C(=O)N2C(CC[C@@H]2COc2ccc3ccccc3c2)N1C(=O)[C@@H](Cc1ccccc1Cl)NC(=O)[C@@H]1C[C@@H](OCc2ccccc2)CN1 (some centres unmarked) [Example 84]	44	37	74	0	–	–	–	–
CCCCCCC(=O)NC(COCc1ccccc1)C(=O)NC(Cc1ccc2ccccc2c1)C(=O)N1CC2CC(Oc3ccc4ccccc4c3)CN2C(=O)C1CCCCN (centres unmarked) [Example 178]	33	0	0	0	–	–	–	–
NCCCC[C@H]1C(=O)N2C(CC[C@@H]2COc2ccc3ccccc3c2)N1C(=O)[C@@H](Cc1ccc(Cl)cc1)NC(=O)[C@@H](N)COCc1ccccc1 (some centres unmarked) [Example 79]	90	86	81	14	–	–	–	–
CCCCCCC(=O)N[C@@H](COCc1ccccc1)C(=O)N[C@H](Cc1ccccc1Cl)C(=O)N1C2CC[C@H](COc3ccc4ccccc4c3)N2C(=O)[C@@H]1CCCCN (some centres unmarked) [Example 86]	71	47	82	30	–	–	–	–
N=C(N)NCCC[C@H]1C(=O)N(CCc2c[nH]c3ccccc23)CCN1C(=O)[C@H](N)Cc1ccc(Cl)cc1Cl [Example 124]	7	35	96	57	–	–	–	–

From patent US7807678B2, “Peptidomimetics of biologically active metallopeptides” (Palatin Technologies, Inc., priority 2001, dated 2010)
